Assay [1] has as its system Glo-Response ARE-luc2P HEK293 cell line. The assay is described as follows: ARE luciferase reporter cell-based assay.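 Note: luciferase signal tracks Nrf2 activation of the ARE once compounds disrupt KEAP1-Nrf2 binding, read with One-Glo reagent, DMSO serving as low control.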 Conditions: Homo sapiens, HEK293, 24 h, average of results obtained. For orientation: A reporter such as luciferase makes a cellular process visible.
For assay [2], the target named is Kelch domain of human KEAP1 (321-624 aa) (Homo sapiens (Human), UniProt Q14145). The assay is described as follows: KEAP1 KELCH ThermoFluor binding assay.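 Note: Ligand-induced melting temperature shift of E. coli-expressed KEAP1 Kelch protein, Kd estimated from concentration-response curves of ΔTm.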 Conditions: KEAP Kelch […], 1,8-ANS, pH 7.0, average of results obtained, read-out: Tf Kd. Background: Differential scanning fluorimetry follows unfolding on heating by fluorescence.

Structures are written as SMILES. pEC50, pKd: −log10 of the molar value.

In patent US10947252B2, “Inhibitors of KEAP1-Nrf2 protein-protein interaction” (Janssen Pharmaceutica NV, priority 2018, dated 2021) one finds EC50 and Kd data, which are given here for 13 compounds.

As a reminder, the pEC50 is the negative decadic logarithm of the EC50, by convention in mol/L. What is called pKd is the negative decadic logarithm of the Kd, by convention in mol/L.

Kelch domain of human KEAP1 (321-624 aa), sequence (Q14145 321-624): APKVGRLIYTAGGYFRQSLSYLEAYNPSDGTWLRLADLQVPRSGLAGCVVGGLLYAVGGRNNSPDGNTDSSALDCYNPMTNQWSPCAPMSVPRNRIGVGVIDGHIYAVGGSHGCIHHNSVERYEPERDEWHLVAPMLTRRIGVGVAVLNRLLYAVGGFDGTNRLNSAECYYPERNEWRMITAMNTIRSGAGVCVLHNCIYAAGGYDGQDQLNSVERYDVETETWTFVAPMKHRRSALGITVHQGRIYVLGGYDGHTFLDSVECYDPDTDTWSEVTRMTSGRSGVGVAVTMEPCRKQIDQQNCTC

`Cc1ccc([C@H](CC(=O)O)c2ccn3c(C)nnc3c2)cc1CN1C[C@H]2CCCN2c2ccccc2S1(=O)=O` (single isomer, unassigned) [Example 165, (*S)-3-(3-(((R)-5,5-Dioxido-7a,8,9,10-tetrahydrobenzo[f]pyrrolo[2,1-d][1,2,5]thiadiazepin-6(7H)-yl)methyl)-4-methylphenyl)-3-(3-methyl-[1,2,4]triazolo[4,3-a]pyridin-7-yl)propanoic Acid] had a pEC50 in assay [1] of 5.83. Besides, in assay [2], the pKd is > 9.00.

The compound `Cc1ccc(C(c2ccc3c(nnn3CC3CC3)c2C)C(C)(C)C(=O)O)nc1CN1CC2(CCOCC2)Oc2nc(OCCN3CCOCC3)ccc2S1(=O)=O` (centres unmarked) [Example 327, 3-(1-(Cyclopropylmethyl)-4-methyl-1H-benzo[d][1,2,3]triazol-5-yl)-2,2-dimethyl-3-(5-methyl-6-((7′-(2-morpholinoethoxy)-1′,1′-dioxido-2,3,5,6-tetrahydrospiro[pyran-4,4′-pyrido[2,3-b][1,4,5]oxathiazepin]-2′(3′H)-yl)methyl)pyridin-2-yl)propanoic Acid] gave a pEC50 in assay [1] of 8.16. The pKd in assay [2] is > 9.00.

Regarding `Cc1ccc([C@@H](c2ccn3c(C(F)(F)F)nnc3c2C)C(C)(C)C(=O)O)cc1CN1CC2(CC2)Oc2nc(OCCN3CCCCC3)ccc2S1(=O)=O` (single isomer, unassigned) [Example 371, (*S)-3-(3-1′,1′-Dioxido-7′-(2-(piperidin-1-yl)ethoxy)spiro[cyclopropane-1,4′-pyrido[2,3-b][1,4,5]oxathiazepin]-2′(3′H)-yl)methyl)-4-methylphenyl)-2,2-dimethyl-3-(8-methyl-3-(trifluoromethyl)-[1,2,4]triazolo[4,3-a][pyridine-7-yl)propanoic Acid], the pEC50 in assay [1] is 8.22. In addition, the pKd in assay [2] was > 9.00.

Regarding `Cc1ccc(C(CC(=O)O)c2ccc3c(nnn3C3CC3)c2C)cc1CN1C[C@@H]2COCCN2c2ncccc2S1(=O)=O` (stereo in doubt) [Example 23, 3-(1-Cyclopropyl-4-methyl-1H-benzo[d][1,2,3]triazol-5-yl)-3-(3-(((*R)-5,5-dioxido-7a,8,10,11-tetrahydro-[1,4]oxazino[3,4-d]pyrido[2,3-f][1,2,5]thiadiazepin-6(7H)-yl)methyl)-4-methylphenyl)propanoic Acid], the pEC50 in assay [1] is 8.08. Moreover, the pKd in assay [2] was 9.56.

In assay [1], `Cc1ccc([C@@H](CC(=O)O)c2ccn3c(C(F)(F)F)nnc3c2C)nc1CN1CC2(CC2)Oc2ncc(F)cc2S1(=O)=O` (single isomer, unassigned) [Example 509, (*S)-3-(6-((8′-Fluoro-1′,1′-dioxidospiro[cyclopropane-1,4′-pyrido[2,3-b][1,4,5]oxathiazepin]-2′(3′H)-yl)methyl)-5-methylpyridin-2-yl)-3-(8-methyl-3-(trifluoromethyl)-[1,2,4]triazolo[4,3-a]pyridin-7-yl)propanoic Acid] had a pEC50 of 7.15. Moreover, the pKd in assay [2] was > 9.00.

`Cc1ncc([C@H](c2ccc3c(nnn3C3CC3)c2C)C(C)(C)C(=O)O)cc1CN1CC2(CCOCC2)Oc2ncccc2S1(=O)=O` (single isomer, unassigned) [Example 44, (*S)-3-(1-Cyclopropyl-4-methyl-1H-benzo[d][1,2,3]triazol-5-yl)-3-(5-((1′,1′-dioxido-2,3,5,6-tetrahydrospiro[pyran-4,4′-pyrido[2,3-b][1,4,5]oxathiazepin]-2′(3′H)-yl)methyl)-6-methylpyridin-3-yl)-2,2-dimethylpropanoic Acid]: the pEC50 in assay [1] is 7.27. In assay [2], the pKd is > 9.00.

In assay [1], `Cc1ccc([C@@H](CC(=O)O)c2ccn3c(C4CC4)nnc3c2C)cc1CN1C[C@H]2CCCN2c2ncccc2S1(=O)=O` (single isomer, unassigned) [Example 169, (*R)-3-(3-Cyclopropyl-8-methyl-[1,2,4]triazolo[4,3-a]pyridin-7-yl)-3-(3-(((R)-5,5-dioxido-7a,8,9,10-tetrahydropyrido[2,3-f]pyrrolo[2,1-d][1,2,5]thiadiazepin-6(7H)-yl)methyl)-4-methylphenyl)propanoic Acid] had a negative logarithm of the EC50 (pEC50) of 5.23. Also, the pKd in assay [2] is 8.92.

As for `Cc1ccc([C@@H](c2ccn3c(C(F)(F)F)nnc3c2C)C(C)(C)C(=O)O)cc1CN1C[C@]2(CCOC2)Oc2ncccc2S1(=O)=O` (single isomer, unassigned) [Example 381, (*S)-3-(3-(((*S)-1′,1′-Dioxido-4,5-dihydro-2H-spiro[furan-3,4′-pyrido[2,3-b][1,4,5]oxathiazepin]-2′(3′H)-yl)methyl)-4-methylphenyl)-2,2-dimethyl-3-(8-methyl-3-(trifluoromethyl)-[1,2,4]triazolo[4,3-a]pyridin-7-yl)propanoic Acid], in assay [1], the pEC50 was 6.37. The pKd in assay [2] is 5.55.

Regarding `Cc1cnc2c(c1)S(=O)(=O)N(Cc1cc([C@H](CC(=O)O)c3ccn4c(C(F)F)nnc4c3C)ccc1C)CC1(CC1)O2` (single isomer, unassigned) [Example 536, (*S)-3-(3-(Difluoromethyl)-8-methyl-[1,2,4]triazolo[4,3-a]pyridin-7-yl)-3-(4-methyl-3-((8′-methyl-1′,1′-dioxidospiro[cyclopropane-1,4′-pyrido[2,3-b][1,4,5]oxathiazepin]-2′(3′H)-yl)methyl)phenyl)propanoic Acid], the pEC50 in assay [1] was 7.22. In assay [2], the pKd is > 9.00.

Take `Cc1ccc([C@@H](CC(=O)O)c2ccc3c(nnn3C3CC3)c2C)cc1CN1CC2(COC2)Oc2ccccc2S1(=O)=O` (single isomer, unassigned) [Example 216, (*R)-3-(1-Cyclopropyl-4-methyl-1H-benzo[d][1,2,3]triazol-5-yl)-3-(3-((1,1-dioxidospiro[benzo[b][1,4,5]oxathiazepine-4,3′-oxetan]-2(3H)-yl)methyl)-4-methylphenyl)propanoic Acid]: in assay [1], the pEC50 is 7.42. The pKd in assay [2] was 8.70.

Take `Cc1ccc(C(c2ccn3c(C(F)(F)F)nnc3c2C)C(C)(C)C(=O)O)cc1CN1CC2(CCOCC2)Oc2nc(N[C@@H](C)CCO)ccc2S1(=O)=O` (some centres unmarked) [Example 118]: the pEC50 in assay [1] is 6.49. The pKd in assay [2] was > 9.00.

`Cc1ccc([C@H](c2ccn3c(C(F)(F)F)nnc3c2C)C(C)(C)C(=O)O)cc1CN1C[C@@H]2CCCCN2c2ncc(C#N)cc2S1(=O)=O` (single isomer, unassigned) [Example 425, (*R)-3-(3-(((*S)-3-cyano-5,5-dioxido-7,7a,8,9,10,11-hexahydro-6H-dipyrido[2,1-d:2′,3′-f][1,2,5]thiadiazepin-6-yl)methyl)-4-methylphenyl)-2,2-dimethyl-3-(8-methyl-3-(trifluoromethyl)-[1,2,4]triazolo[4,3-a]pyridin-7-yl)propanoic Acid]: the pEC50 in assay [1] is 7.01. Moreover, in assay [2], the pKd is > 9.00.

In turn, `Cc1ccc([C@@H](c2ccn3c(C(F)(F)F)nnc3c2C)C(C)(C)C(=O)O)cc1CN1CC2(CCOCC2)Oc2nc(OC(C)CN3CCCCC3)c(C)cc2S1(=O)=O` (stereo in doubt) [Example 600, (*S)-2,2-Dimethyl-3-(4-methyl-3-((8′-methyl-1′,1′-dioxido-7′-((1-(piperidin-1-yl)propan-2-yl)oxy)-2,3,5,6-tetrahydrospiro[pyran-4,4′-pyrido[2,3-b][1,4,5]oxathiazepin]-2′,(3′H)-yl)methyl)phenyl)-3-(8-methyl-3-(trifluoromethyl)-[1,2,4]triazolo[4,3-a]pyridine-7-yl)propanoic Acid] gave a pEC50 in assay [1] of 8.34. The pKd in assay [2] is > 9.00.
